According to patent publication US20240325413A1, “FORMULATIONS FOR THE TREATMENT OF RESPIRATORY DISORDERS” (484 Science Corp, priority 2021, published 2024):

Tests used:
[1] = Next Generation Impactor (NGI) testing of pMDI prototype formulations; assay type: physicochemical; conditions: for Fine Particle Dose: Stages 3 to MOC; for Actual Emitted dose: Throat stage to MOC
Protocol: The Next Generation Pharmaceutical Impactor (NGI) testing is performed using Copley and MSP instruments. Emitted dose or Ex-device is calculated as the total dose deposited in the NGI apparatus starting from Throat stage to Micro-orifice collector (MOC). The Fine Particle Dose (FPD) is calculated as the total dose deposited in Stages 3 to MOC of the NGI apparatus. Mass Median Aerodynamic Diameter (MMAD) and Geometric Standard Deviation (GSD) is calculated from aerodynamic particle size distribution of particles in different stages of the NGI apparatus.

[2] = Total emitted dose of the APIs from pMDI prototype formulations, HPLC assay; assay type: physicochemical; set-up: unit not given here; conditions: pMDI Formulation 1-4; for emitted dose, Mean: Mean of ED 1 to ED 8
Protocol: An optimized HPLC assay method was developed for the assay of prototype formulations.
The total emitted dose from APIs ED 1 to ED 8 was then analyzed using the HPLC Assay.

Row | Structure (SMILES) | % Emitted dose ([1]; Formulation 1) [%] | % Fine Particle Dose ([1]; Formulation 1) [%] | GSD ([1]; Formulation 1) | MMAD ([1]; Formulation 1) [µm] | Fine Particle Dose ([1]; Formulation 1) [µg] | Actual Emitted dose ([1]; Formulation 1) [µg] | % Emitted dose ([1]; Formulation 4) [%] | % Fine Particle Dose ([1]; Formulation 4) [%] | GSD ([1]; Formulation 4) | MMAD ([1]; Formulation 4) [µm] | Fine Particle Dose ([1]; Formulation 4) [µg] | Actual Emitted dose ([1]; Formulation 4) [µg] | emitted dose ([2]; ED 7) | emitted dose ([2]; ED 8) | emitted dose, Mean [2] | % Emitted dose ([1]; Formulation 2) [%] | % Fine Particle Dose ([1]; Formulation 2) [%] | GSD ([1]; Formulation 2) | MMAD ([1]; Formulation 2) [µm] | Fine Particle Dose ([1]; Formulation 2) [µg] | further results
1 | CCCCCc1cc(O)c2c(c1)OC(C)(CCC=C(C)C)C=C2 (stereo not shown) [CBC, cannabichromene] | 89 | 36 | 3 | 4.5 | 108.6 | 266.1 | 105 | 36 | 3 | 5.2 | 71.1 | 209.4 | 262.4 | 269.8 | 266.1 | – | – | – | – | – | –
2 | C=C(C)[C@@H]1CCC(C)=C[C@H]1c1c(O)cc(CCCCC)cc1O [CBD, cannabidiol, reference compound] | 104 | 41 | 3 | 4.6 | 122.8 | 312.1 | 96 | 36 | 3 | 4.75 | 109.5 | 288.1 | 301.6 | 304.3 | 298.0 | 96 | 37 | 3 | 4.5 | 111.0 | Actual Emitted dose ([1]; Formulation 2): 288.7 µg; % Emitted dose ([1]; Formulation 3): 101%; % Fine Particle Dose ([1]; Formulation 3): 40%; GSD ([1]; Formulation 3): 3; MMAD ([1]; Formulation 3): 4.4 µm; Fine Particle Dose ([1]; Formulation 3): 120.8 µg; Actual Emitted dose ([1]; Formulation 3): 303.0 µg; emitted dose ([2]; ED 1): 287.0; emitted dose ([2]; ED 2): 289.2; emitted dose ([2]; ED 3): 308.0; emitted dose ([2]; ED 4): 316.2; emitted dose ([2]; ED 5): 284.9; emitted dose ([2]; ED 6): 292.6
3 | C=C(C)[C@@H]1CCC(C)=C[C@H]1c1c(O)cc(CCC)cc1O [CBDV, cannabidivarin] | – | – | – | – | – | – | 98 | 33 | 3 | 5.1 | 66.5 | 195.2 | 265.4 | 278.5 | 272.0 | – | – | – | – | – | % Emitted dose ([1]; Formulation 3): 91%; % Fine Particle Dose ([1]; Formulation 3): 36%; GSD ([1]; Formulation 3): 3; MMAD ([1]; Formulation 3): 4.6 µm; Fine Particle Dose ([1]; Formulation 3): 108.0 µg; Actual Emitted dose ([1]; Formulation 3): 272.0 µg
4 | CCCCCc1cc(O)c(C/C=C(\C)CCC=C(C)C)c(O)c1 [CBG, cannabigerol] | 115 | 43 | 3 | 4.7 | 129.5 | 345.7 | 106 | 34 | 3 | 5.25 | 67.5 | 212.1 | 331.0 | 332.1 | 335.2 | 109 | 39 | 3 | 4.65 | 118.0 | Actual Emitted dose ([1]; Formulation 2): 328.3 µg; % Emitted dose ([1]; Formulation 3): 111%; % Fine Particle Dose ([1]; Formulation 3): 43%; GSD ([1]; Formulation 3): 3; MMAD ([1]; Formulation 3): 4.5 µm; Fine Particle Dose ([1]; Formulation 3): 127.5 µg; Actual Emitted dose ([1]; Formulation 3): 331.6 µg; emitted dose ([2]; ED 3): 338.2; emitted dose ([2]; ED 4): 353.3; emitted dose ([2]; ED 5): 323.7; emitted dose ([2]; ED 6): 332.9
5 | CCCCCc1cc(O)c2c(c1)OC(C)(C)c1ccc(C)cc1-2 [CBN, cannabinol] | – | – | – | – | – | – | 95 | 34 | 3 | 5 | 68.2 | 189.1 | 255.7 | 263.5 | 259.6 | 87 | 35 | 3 | 4.4 | 105.8 | Actual Emitted dose ([1]; Formulation 2): 259.6 µg
6 | C[N+]1(C)CCC(OC(=O)C(O)(c2ccccc2)C2CCCC2)C1 (stereo not shown) [Glycopyrronium, glycopyrronium, reference compound] | 104 | 29 | 2 | 4.9 | 7.8 | 28.0 | 104 | 25 | 2 | 5.65 | 6.8 | 28.1 | 27.0 | 30.2 | 29.0 | 116 | 28 | 2 | 5.15 | 7.7 | Actual Emitted dose ([1]; Formulation 2): 31.4 µg; % Emitted dose ([1]; Formulation 3): 106%; % Fine Particle Dose ([1]; Formulation 3): 31%; GSD ([1]; Formulation 3): 2; MMAD ([1]; Formulation 3): 5.1 µm; Fine Particle Dose ([1]; Formulation 3): 8.3 µg; Actual Emitted dose ([1]; Formulation 3): 28.6 µg; emitted dose ([2]; ED 1): 27.6; emitted dose ([2]; ED 2): 28.7; emitted dose ([2]; ED 3): 27.5; emitted dose ([2]; ED 4): 28.5; emitted dose ([2]; ED 5): 30.3; emitted dose ([2]; ED 6): 32.4
